Test system: VRBMP-1 binding to ACE2 on NOK cells
Type: cell-based, human

For diminazene aceturate [DIZE], the “Binding of VRBMP-1 to NOK cells after DIZE treatment” value was “significantly reduced binding of VRBMP-1 at all three concentrations in a dose-dependent manner” and the “Reduction of VRBMP-1 binding, decoy peptides and DIZE each alone” value was “significantly reduced the binding of VRBMP-1 with nearly the same potency”.

Reference: paper PMC10724569 (Heliyon, 2023)
